Data: PMC3039689, “Identification of Small Molecule Lead Compounds for Visceral Leishmaniasis Using a Novel Ex Vivo Splenic Explant Model System” (PLoS Neglected Tropical Diseases, 2011)
Like-named read-outs stand apart in the source and are kept apart here.

How the values were obtained:
[1] = system: luciferase-transfected Leishmania donovani; assay: Anti-leishmanial efficacy (EC50) in the ex vivo splenic explant model; type: cell-based
Experimental: To establish the plate assay for drug screening, the spleens from 2 infected hamsters were aseptically removed and placed in a Petri dish containing 5 mL of Collagenase D (Roche) at 2 mg/mL of buffer (10 mM Hepes pH 7.4, 150 mM NaCl, 5 mM KCl, 1 mM MgCl2, 1.8 mM CaCl2). The spleen was infiltrated by injection with approximately 2 mL of Collagenase solution, the tissue was cut into small pieces using sharp scissors, and incubated for 20 minutes at 37°C. The cell suspension and remaining tissue fragments were gently passed through a 100 µm cell strainer (B–D) to obtain a single cell suspension, which was washed twice by centrifugation (500 g for 7 min at 4°C) and re-suspended in culture medium composed of DMEM (Gibco), 5% FBS, 1 mM Sodium pyruvate (Gibco), 1X MEM amino acids solution (Sigma), 0.02% v/v/EDTA, 10 mM HEPES buffer (Cellgro) and 100 IU/mL Penicillin/100 […] Streptomycin solution (Cellgro).
The anti-leishmanial efficacy of the compounds was determined using the splenic explant model in a 96-well plate format. […] Because variation in the parasite burden between different explant cultures was expected, the concentration of cells used in each experiment was adjusted to give approximately 100 counts by luminometry (equivalent to ∼240,000 parasites). The number of surviving parasites was determined by luminometry as described above.

[2] = Cell toxicity (CC50) in the HepG2 cell line, CellTiter-Glo; type: cell-based, human; conditions: human
Experimental: (§1) After 24 hours of culture at 37°C the number of viable cells was determined by quantification of the ATP present in the cell using the CellTiter-Glo luminescent Cell Viability Assay (Promega).

[3] = system: LUC-transfected L. donovani; assay: Anti-leishmanial efficacy (EC50) in in vitro infected peritoneal macrophages; type: cell-based, Leishmania donovani; conditions: 48 h, read-out: Peritoneal Macrophages EC50 (mean±SE)
Experimental: Macrophages from uninfected hamsters were obtained by peritoneal lavage with DMEM (Gibco) and Heparin (2 units/ml; Elkins-Sinn, Cherry Hill NJ). The cells were washed twice by centrifugation and re-suspended in culture medium composed of DMEM, 5% FBS, 1 mM sodium pyruvate (Gibco), 1X MEM amino acids solution (Sigma), 0.02% v/v/EDTA and 10 mM HEPES buffer (Cellgro). The peritoneal macrophages were adjusted to 5×10^5 cells/ml and allowed to adhere overnight at 37°C and 5% CO2 in flat bottom 96-well plates. Adherent macrophages were infected at 1∶5 ratio (cells:parasites) with stationary phase LUC-transfected L. donovani promastigotes and cultured at 37°C, 5% CO2, for 2 h. The extracellular parasites were then removed by washing with warm Dulbeco's PBS (Gibco). Infected macrophages were exposed to 2-fold serial dilutions of test compounds as described above for the ex vivo culture system. The infected macrophages were incubated for 48 hr in 5% CO2 atmosphere at 37°C. The number of surviving parasites was determined by luminometry and the effective concentration (EC50) calculated by linear regression (GraphPad Prism 5.0) as described above for the ex vivo system. The mean and standard error of the EC50 from 3 different experiments were considered as the final EC50. […] Tilorone was obtained from Hangzhou Trylead Chemical Tech (China). All compounds were dissolved in sterile dimethyl sulfoxide (analytical grade, cell culture tested; Sigma) and stored frozen at −20°C until used.

splenocytes [4] = system: splenocytes
Leishmania donovani = assay: Discrimination between amphotericin B treated and untreated splenic explant cultures at serial dilutions of cells; type: cell-based; conditions: AMB 0.126 µg/mL, 48 h; for Parasite counts, Treated (AMB): mean ± SD; for Reduction in parasite burden: with reference to controls
[5] = system: luciferase-transfected Leishmania donovani; assay: Primary screening of compound libraries in the ex vivo splenic explant model (Z score); type: cell-based; conditions: 10 µM; for Outcome of library screening (significant Z score / hit): compounds as included in the libraries
Text: The following chemical libraries in 96-well plate format were screened: NINDS Custom Collection II (MicroSource Discovery Systems, Inc.), which consists of 1,040 classical therapeutic agents, established experimental inhibitors, receptor agonist drugs and other bioactive compounds [24], [25], [26]; the Pure Natural Products library (MicroSource Discovery Systems, Inc.) a collection of 800 pure natural products and derivatives; and The Diversity Set and Natural Products set (Developmental Therapeutics Program, NCI/NIH) a set of 2,195 compounds selected from the almost 140,000 compounds based on diversity of structure, [28], [29]. Libraries containing the compounds at 10 mM concentration in DMSO were diluted into master plates at 200 µM concentration in DMEM. The 200 µM master plates were further diluted by transferring an aliquot of 5 µl into a 96-well sterile white-bottom plate (Costar) containing 45 µl of culture medium at 4°C. Splenocytes (100,000 in 50 µl of culture medium) that had been obtained from infected hamsters as described above were added to the assay plate for a final drug concentration of 10 µM. The positive control (splenocytes treated with 0.2 µM Amphotericin B) and negative controls (0.1% DMSO vehicle) were distributed in the two outer columns (8 wells each) of each plate in alternating fashion to minimize any edge effect. After 48 hours of culture at 37°C in a humidified atmosphere and 5% CO2, the plates were centrifuged at 500 g for 7 min, the supernatant discarded using a multi- channel vacuum aspirator (Costar), and 20 µl of 1X cell culture lysis reagent (Promega) was added to the cells. To complete the lysis procedure the plates were frozen at −70°C and then thawed, and the luciferase activity determined in a plate luminometer following addition of 100 µl of the luciferin substrate at room temperature (Promega). The Z score was calculated for each compound as the mean counts of the compound tested minus the mean counts of all compounds in the plate divided by the SD all compounds in the plate. The mean Z score for each drug was calculated based on duplicate screenings performed in two different experiments. A Z score of ≤–1.96, which corresponds to a p value of ≤0.05 (95% confidence limit), was used as the threshold to identify the hits. […] The quality of each assay was determined by calculating the Z prime (Z') factor [31], which measures the discrimination between positive and negative controls in the screen. The Z' factor was calculated as 1 – [(3SD positive controls +3SD negative controls)/absolute value of (mean of the positive controls – mean of the negative controls)].

splenocytes [6] = assay: Flow cytometry of propidium iodide stained splenocytes cultured with test compound; conditions: 48 hr culture period, data not shown
HepG2 cells = assay: Cell toxicity (CC50) in the HepG2 cell line, CellTiter-Glo; type: cell-based, human; conditions: HepG2 cell line, 24 h, ATP luminescence; compound from screened library; read-out: HepG2 CC50 Mean
Experimental: as §1

[7] = Leishmania donovani, ex vivo splenic explant, 48 h, luminometry, at least two experiments, compound from screened library, read-out: Ex vivo model EC50 Mean
[8] = Leishmania donovani, 48 h, 48 h of culture, luminometry, purchased compounds dissolved in DMSO, read-out: Ex vivo model EC50 (mean±SE)
[9] = Leishmania donovani, Peritoneal macrophage, hamster peritoneal macrophages infected in vitro, luminometry, purchased compounds
[10] = ex vivo splenic explant, 48 h, luminometry, at least two experiments, compound from screened library, read-out: Ex vivo model EC50 Mean

CCCCCC[C@H]1C(=O)O[C@H](C)[C@H](NC(=O)c2cccc(NC=O)c2O)C(=O)O[C@@H](C)[C@@H]1OC(=O)CC(C)C [ANTIMYCIN A]
EC50 ([1]; Leishmania donovani, 50% reduction in parasite counts in the ex vivo model, read-out: EC50 Mean (Table S2)): 11.6 µM | EC50 ([1]; Leishmania donovani, 48 h of culture, luminometry, purchased compounds dissolved in DMSO, read-out: Ex vivo model EC50 (mean±SE)): 1.27 ± 1.07 µM | EC50 [1, 7]: 11.6 µM | CC50 at 24 h ([2]; HepG2 cell line, 24 h, ATP luminescence, compound from screened library, read-out: HepG2 CC50 Mean): 58.4 µM | EC50 ([3]; Leishmania donovani, Peritoneal macrophage, in Mesocricetus auratus): 1.67 ± 1.05 µM

C[C@@H]1[C@H](O)[C@@H](C)/C=C/C=C/C=C/C=C/C=C/C=C/C=C/[C@H](O[C@@H]2O[C@H](C)[C@@H](O)[C@H](N)[C@@H]2O)C[C@@H]2O[C@](O)(C[C@@H](O)C[C@@H](O)[C@H](O)CC[C@@H](O)C[C@@H](O)CC(=O)O[C@H]1C)C[C@H](O)[C@H]2C(=O)O [Amphotericin B]
EC50 [1, 8]: 0.09 ± 0.03 µM | EC50 ([1]; Leishmania donovani, ex vivo model, amphotericin B present in the library (in DMSO vehicle), read-out: EC50): 10.7 ± 0.9 µM | CC50 at 24 h [2]: 104 µM | EC50 [3, 9]: 0.11 ± 0.01 µM | Splenocyte viability (splenocytes [4]): no loss of splenocyte viability | Parasite counts, Treated (AMB) (Leishmania donovani; 3,125 cells per well): 0.1±0.1 photons/sec | Reduction in parasite burden (Leishmania donovani; 3,125 cells per well): 83.5% | Parasite counts, Treated (AMB) (Leishmania donovani; 6,250 cells per well): 0.2±0.0 photons/sec | Reduction in parasite burden (Leishmania donovani; 6,250 cells per well): 86.3% | Parasite counts, Treated (AMB) (Leishmania donovani; 12,500 cells per well): 0.4±0.3 photons/sec | Reduction in parasite burden (Leishmania donovani; 12,500 cells per well): 86.2% | Parasite counts, Treated (AMB) (Leishmania donovani; 25,000 cells per well): 0.7±0.0 photons/sec | Reduction in parasite burden (Leishmania donovani; 25,000 cells per well): 86.4% | Parasite counts, Treated (AMB) (Leishmania donovani; 50,000 cells per well): 2.5±0.5 photons/sec | Reduction in parasite burden (Leishmania donovani; 50,000 cells per well): 82.3% | Parasite counts, Treated (AMB) (Leishmania donovani; 100,000 cells per well): 8.5±0.2 photons/sec | Reduction in parasite burden (Leishmania donovani; 100,000 cells per well): 83.3% | Parasite counts, Treated (AMB) (Leishmania donovani; 200,000 cells per well): 34.8±3.7 photons/sec | Reduction in parasite burden (Leishmania donovani; 200,000 cells per well): 76.0%

CCN(CC)C(=S)SSC(=S)N(CC)CC [Disulfiram]
EC50 [1, 8]: 0.31 ± 0.03 µM | EC50 [1, 7]: 8.1 µM | CC50 at 24 h [2]: 53 µM | EC50 [3, 9]: 0.16 ± 0.03 µM

OC(Cn1cncn1)(Cn1cncn1)c1ccc(F)cc1F [Fluconazole]
EC50 [1, 8]: > 250 µM | Activity in the ex vivo system (screen or EC50 determination) ([1]; transgenic L. donovani, ex vivo system): no activity | EC50 [3, 9]: > 250 µM | Outcome of library screening (significant Z score / hit) [5]: did not show a significant Z score

CCCCCCCCCCCCCCCCOP(=O)([O-])OCC[N+](C)(C)C [Miltefosine]
EC50 [1, 8]: 1.02 ± 0.08 µM | EC50 ([1]; Leishmania donovani, ex vivo model, freshly solubilized compound from commercial source, read-out: EC50): 1 µM | Anti-leishmanial activity, repeated testing ([1]; compound from the NCI chemical library): inactive | EC50 [3, 9]: 2.28 ± 0.21 µM | Outcome of library screening (significant Z score / hit) [5]: did not show a significant Z score

CC[C@@]1([C@@H]2O[C@@H]([C@H]3O[C@@](O)(CO)[C@H](C)C[C@@H]3C)C[C@@H]2C)CC[C@H]([C@]2(C)CC[C@]3(C[C@H](O)[C@@H](C)[C@@H]([C@@H](C)[C@@H](OC)[C@H](C)C(=O)O)O3)O2)O1 [Monensin A]
EC50 [1, 8]: 0.85 ± 0.68 µM | EC50 [3, 9]: 0.23 ± 0.15 µM

CNCCC=C1c2ccccc2CCc2ccccc21 [Nortriptyline]
EC50 [1, 8]: 6.03 ± 0.28 µM | EC50 [3, 9]: 2.65 ± 0.35 µM

N=C(N)c1ccc(OCCCCCOc2ccc(C(=N)N)cc2)cc1 [Pentamidine]
EC50 [1, 8]: 3.02 ± 0.34 µM | EC50 ([1]; Leishmania donovani, Splenocyte, ex vivo splenocytes system, read-out: EC50): 3 µM | EC50 [3, 9]: 0.89 ± 0.37 µM | Z score ([5]; 48 h, duplicate screen, hit threshold -1.96): −1.87 | Outcome of library screening (significant Z score / hit) [5]: did not show a significant Z score

CCN(CC)CCOc1ccc2c(c1)C(=O)c1cc(OCCN(CC)CC)ccc1-2 [Tilorone]
EC50 [1, 8]: 0.84 ± 0.47 µM | EC50 ([1]; Leishmania donovani, 48 h, ex vivo splenic explant, 48 h, luminometry, at least two experiments, compound from screened library, read-out: Ex vivo model EC50 Mean): 7.7 µM | CC50 at 24 h ([2]; HepG2 cells, HepG2 cell line, 24 h, ATP luminescence, compound from screened library, read-out: HepG2 CC50 Mean): 46.8 µM | EC50 [3, 9]: 1.48 ± 0.35 µM | Splenocyte viability (splenocytes [6]): no loss of splenocyte viability

O=C1C=C2C=C[C@H]3C[C@]2(O1)[C@@H]1CCCCN13 [Virosecurinine]
EC50 [1, 10]: 8.8 µM | CC50 (HepG2 cells): 121 µM

Benzalkonium Chloride
EC50 [1, 10]: 6.4 µM | CC50 (HepG2 cells): 38.6 µM

Meglumine antimoniate
EC50 ([1]; 48 h of culture, luminometry, purchased compounds dissolved in DMSO, read-out: Ex vivo model EC50 (mean±SE)): 270 ± 57.5 µM | EC50 ([3]; hamster peritoneal macrophages infected in vitro, luminometry, purchased compounds): 146 ± 42 µM
